Source: patent US4543256A, “(-)-10,1L Methylenedioxy-N-N-propylnoraporphine and methods employing it for inhibiting the effects of epileptic seizures and for prevention and treatment of duodenal ulcers” (Northeastern University, priority 1982, dated 1985)
“Also recorded” adds a separate entry of the source. Structures can show the parent of a compound that is named as a salt.

Legend:
[1] = tested on: gastric acid output; assay: Cysteamine induced gastric acid output; format: in vivo, rat; settings: for INITIAL OUTPUT (gastric acid): at opening of gastric fistula, control 187 ± 20; for Gastric acid output, 1 hr: control 68 ± 17; for Gastric acid output, 6 hr: control 91 ± 12; for Gastric acid output, 7 hr: control 99 ± 10; for Gastric acid output, 5 hr: control 104 ± 18; for Gastric acid output, 4 hr: control 110 ± 25; for Gastric acid output, 3 hr: control 141 ± 32; for Gastric acid output, 2 hr: control 195 ± 48; for TOTAL OUTPUT (gastric acid): control 1043 ± 102
Experimental: (A) In addition, rats of all groups were given cysteamine HCL, 15 mg. 100
g p.o. × 1, 30 min. after (the last dose of) MDO--NPA.
(B) At the opening of gastric fistula

[2] = tested on: rats; assay: Locomotor (general motor) activity, electronic activity monitor; format: in vivo, rat (male Sprague-Dawley)
Experimental: (§1) Male Sprague-Dawley (Charles River Labs.) rats (initially 175-200 g) were housed four per cage, with free access to food and water, under controlled lighting (on 7:00 a.m. to 7:00 p.m.), constant temperature 21°-23° C. and controlled humidity (40-50%). Aporphines were administered, as described below, freshly dissolved in 1 mM citric acid mixed with 0.9% (w/v) saline (1:4, vols.); this solvent was also used as a vehicle ("placebo") control. Haloperidol was given in the same medium; 2-diethyl aminoethyl-2,2 diphenylvalerate HCl (SKF-525A) was given in saline.
Locomotor activity was evaluated by use of a printing electronic activity monitor (EAM, Stoelting Co., Chicago, IL) within a sound-attenuated chamber, typically for 60 min., as described previously (Stewart, Campbell, Sperk and Baldessarini, 1979, Psychopharmacology 60 281-289; Campbell and Baldessarini, 1981a, Psychopharmacology 73:219-222.
(§2) In all experiments except those which evaluated the time-course of drug effects, rats were given an injection of vehicle and then allowed to rest for 15 min. to adapt to nonspecific arousal effects, prior to a second injection of test agent (or placebo) and immediate behavioral testing. Behavioral data were evaluated by Student's t-test and are always expressed as mean ±SEM.
Data are mean values ±SEM (N=4 to 8 rats per condition). Animals were pretreated with SKF-525A (40 mg/kg, i.p.) or its vehicle 30 min before MDO-NPA (in the doses noted, from 0 to 3 mg/kg, i.p.). Activity was then monitored electronically for an hour after the low doses of MDO-NPA (data in counts/hour), or rated for stereotypy every 10 min for an hour after higher doses. N.D. indicates "not determined." (*) Indicates a significant difference by t-test between control and oxidase inhibitor-pretreated rats (p<0.01).
Data are mean values ±SEM (N=3 to 6 rats per condition) for effects of seven aporphine compounds (R=substituents, keyed to the structure above). Full chemical names for all compounds are provided in Methods. Ratings are expressed as percent of the maximum possible score (100%)=18.0) of stereotypy (Placebo-injected controls yielded scores of 4.4±2.5%); and as the percent of control locomotor activity (100%=430±86 counts/hr). Data are provided for a dose of 10 mg/kg (i.p.), although doses of 1 and 5 mg/kg were also tested.

[3] = tested on: duodenal ulcers; assay: Cysteamine-induced duodenal ulcer in the rat; settings: for Duodenal Ulcer Intensity (Scale: 0-3): control 1.8; for Duodenal Ulcer Incidence (Positive/Total): control 10/12
[4] = tested on: rats; assay: Stereotyped behavior of rats (rating scale; score, onset and duration); format: in vivo, rat (male Sprague-Dawley); settings: for Duration of Effect (stereotypy): complete when scores ≤3; for Stereotypy Score for 30 min after MDO--NPA: maximum possible 18.0, N=5
Experimental: as §1
Stereotyped behavior was evaluated by a trained observer according to a rating scale method reported previously (Campbell and Baldessarini, 1981a). Briefly, the ratings were as follows: 0, no stereotypy, normal locomotion; 1, discontinuous sniffing, reduced locomotion; 2, continuous sniffing, only periodic exploration; 3, continuous sniffing, mouth movements, infrequent, exploratory activity, Ratings were made each 10 min. by observation for 30 sec, typically for 60 min. (maximum score=18.0/hour).
as §2
Data are mean values ±SEM for N=6 rats per group given doses of each aporphine (1mg/kg/, or approximately 3 umole/kg) by orogastric intubation (P.O.), or subcutaneous (S.C.) or intraperitoneal (I.P.) injection. Stereotypy was rated for one hour as described in Methods and duration is defined as complete when scores diminished to ≤3 (out of a maximum possible score of 18).
Data are mean values ±SEM (N=4 to 8 rats per condition). […] N.D. indicates "not determined." (*) Indicates a significant difference by t-test between control and oxidase inhibitor-pretreated rats (p<0.01).
Stereotypy was rated for 60 min as described in Methods. Data are means SEM (stereotypy scores, when 18=maximum in 1 hour) for N=6 rats per group; (*) indicates p<0.0001 by t test.
Data are mean values ±SEM (N=3 to 6 rats per condition) for effects of seven aporphine compounds (R=substituents, keyed to the structure above). Full chemical names for all compounds are provided in Methods. […] Data are provided for a dose of 10 mg/kg (i.p.), although doses of 1 and 5 mg/kg were also tested.

[5] = group 3: 0.1 mg/100 g × 1 day, 1 week
[6] = group 3: 0.1 mg/100 g × 1 day, 1 week, P < 0.01
[7] = group 3: 0.1 mg/100 g × 1 day, 1 week, P < 0.001
[8] = group 3: 0.1 mg/100 g × 1 day, 1 week, P < 0.09
[9] = 50 μg/100g s.c. once daily seven days
[10] = 100 μg/100g s.c. once daily seven days

## CCCN1CCc2cccc3c2[C@H]1Cc1ccc2c(c1-3)OCO2 [MDO-NPA, (-) 10, 11-methylenedioxy-N-n-propylnoraporphine-HCl]
[1]; group 2: × 1 day, P < 0.001
  INITIAL OUTPUT (gastric acid): 47 ± 13 μ Eq
  Gastric acid output, 7 hr: 18 ± 6 μ Eq
  TOTAL OUTPUT (gastric acid): 288 ± 67 μ Eq
[1]; group 2: × 1 day
  Gastric acid output, 1 hr: 28 ± 18 μ Eq
  Gastric acid output, 3 hr: 81 ± 40 μ Eq
  Gastric acid output, 2 hr: 66 ± 29 μ Eq
[1]; group 2: × 1 day, P < 0.01
  Gastric acid output, 6 hr: 20 ± 11 μ Eq
  Gastric acid output, 5 hr: 10 ± 3 μ Eq
[1]; group 2: × 1 day, P < 0.09
  Gastric acid output, 4 hr: 17 ± 8 μ Eq
[1]; [5]
  INITIAL OUTPUT (gastric acid): 120 ± 36 μ Eq
  Gastric acid output, 1 hr: 29 + 10 μ Eq
[1]; [6]
  Gastric acid output, 6 hr: 18 ± 14 μ Eq
  Gastric acid output, 5 hr: 17 ± 7 μ Eq
  Gastric acid output, 4 hr: 14 ± 6 μ Eq
[1]; [7]
  Gastric acid output, 7 hr: 9 ± 4 μ Eq
  TOTAL OUTPUT (gastric acid): 306 ± 62 μ Eq
[1]; [8]
  Gastric acid output, 3 hr: 36 ± 9 μ Eq
  Gastric acid output, 2 hr: 66 + 21 μ Eq
[2]; Rattus norvegicus, ip, read-out: dose producing increases in general motor activity
  minimal effective dose: > 2 µmol/kg
[2]; SKF-525A 40 mg/kg i.p. 30 min before MDO-NPA 0.05 mg/kg i.p., p<0.01 vs control
  Activity: 425 ± 40 counts/hour
[2]; SKF-525A 40 mg/kg i.p. 30 min before MDO-NPA 0.10 mg/kg i.p., p<0.01 vs control
  Activity: 415 ± 29 counts/hour
[2]; SKF-525A 40 mg/kg i.p. 30 min before MDO-NPA 0.20 mg/kg i.p., p<0.01 vs control
  Activity: 410 ± 32 counts/hour
[2]; SKF-525A 40 mg/kg i.p. 30 min before MDO-NPA 0.30 mg/kg i.p.
  Activity: 440 ± 38 counts/hour
[2]; control (vehicle pretreated), MDO-NPA 0.05 mg/kg i.p.
  Activity: 190 ± 20 counts/hour
[2]; control (vehicle pretreated), MDO-NPA 0.10 mg/kg i.p.
  Activity: 130 ± 30 counts/hour
[2]; control (vehicle pretreated), MDO-NPA 0.20 mg/kg i.p.
  Activity: 260 ± 33 counts/hour
[2]; control (vehicle pretreated), MDO-NPA 0.30 mg/kg i.p.
  Activity: 435 ± 29 counts/hour
[2]; i.p., about 0.1 mg/kg
  dose of maximum effect, inhibition of locomotor activity: 0.3 µmol/kg
[3]; [9]
  Duodenal Ulcer Intensity (Scale: 0-3): 0.8
  Duodenal Ulcer Incidence (Positive/Total): 4/6
[3]; [10]
  Duodenal Ulcer Intensity (Scale: 0-3): 0.5
  Duodenal Ulcer Incidence (Positive/Total): 3/6
[3]; administered orally
  effect on incidence and intensity of duodenal ulcers and gastric acid output, oral: reduces the incidence and intensity of duodenal ulcers and the gastric acid output
[3]; once daily for seven days before cysteamine-hydrochloride
  dose effective in preventing ulcers: 50 micrograms per hundred grams of body weight
[3]; rats given cysteamine
  effect on cysteamine-induced duodenal ulcers: significant prevention of experimental duodenal ulcers; also recorded: virtually abolished
[3]; single high dose
  effect of a single high dose on duodenal ulcers: active
[4]; 1 mg/kg I.P., rated one hour, maximum 18, N=6, mean ±SEM
  Stereotypy Score: 16.5 ± 0.8
[4]; 1 mg/kg I.P.
  Duration of Effect (stereotypy): 116 ± 12 min
[4]; 1 mg/kg P.O.
  Duration of Effect (stereotypy): 112 ± 20 min
[4]; 1 mg/kg S.C., rated one hour, maximum 18, N=6, mean ±SEM
  Stereotypy Score: 17.5 ± 0.4
[4]; 1 mg/kg S.C.
  Duration of Effect (stereotypy): 106 ± 10 min
[4]; 1 mg/kg i.p.
  Stereotypy Score for 30 min after MDO--NPA: 16.5 ± 1.2
[4]; 1 mg/kg p.o.
  Stereotypy Score for 30 min after MDO--NPA: 15.5 ± 1.6
[4]; MDO-NPA 0.3 mg/kg, haloperidol 0, 60 min, maximum 18, N=6
  Stereotypy Score: 11.6 ± 0.8
[4]; MDO-NPA 0.3 mg/kg, haloperidol 0.3 mg/kg 30 min before, p<0.0001
  Stereotypy Score: 0.3 ± 0.2
[4]; MDO-NPA 0.3 mg/kg, haloperidol 1.0 mg/kg 30 min before, p<0.0001
  Stereotypy Score: 0.3 ± 0.2
[4]; MDO-NPA 1.0 mg/kg, haloperidol 0, 60 min, maximum 18, N=6
  Stereotypy Score: 16.6 ± 0.4
[4]; MDO-NPA 1.0 mg/kg, haloperidol 0.3 mg/kg 30 min before, p<0.0001
  Stereotypy Score: 0.5 ± 0.2
[4]; MDO-NPA 1.0 mg/kg, haloperidol 1.0 mg/kg 30 min before, p<0.0001
  Stereotypy Score: 1.2 ± 0.4
[4]; SKF-525A 40 mg/kg i.p. before MDO-NPA 0.30 mg/kg i.p., p<0.01 vs control
  Stereotypy: 1.7 ± 0.6
[4]; SKF-525A 40 mg/kg i.p. before MDO-NPA 1.0 mg/kg i.p., p<0.01 vs control
  Stereotypy: 0.8 ± 0.2
[4]; SKF-525A 40 mg/kg i.p. before MDO-NPA 3.0 mg/kg i.p., p<0.01 vs control
  Stereotypy: 0.8 ± 0.5
[4]; control (vehicle pretreated), MDO-NPA 0.30 mg/kg i.p., score over one hour
  Stereotypy: 12.8 ± 0.6
[4]; control (vehicle pretreated), MDO-NPA 1.0 mg/kg i.p., score over one hour
  Stereotypy: 16.5 ± 0.1
[4]; control (vehicle pretreated), MDO-NPA 3.0 mg/kg i.p., score over one hour
  Stereotypy: 16.2 ± 0.9
[4]; i.p.
  dependence of duration of action on dose: consistent increase in duration of action with increased dose
[4]; i.p., for MDO-NPA at doses above 1 μmole/kg
  duration of stereotyped behavioral effects vs other agents: exceeded that of NPA
